Tests used:
pancreatic beta cell = details: major isomer (2S,3R,4S), micromolar concentrations, glucose dependent; cited from earlier work
[1] = Preclinical oral bioavailability and urinary excretion of 4-OH-Ile in PROMILIN; format: in vivo, rat; details: rats
Method: In addition to the human clinical portion of the study, preclinical trials were conducted in rats to assess if the 4-OH-Ile in PROMILIN™ is orally bioavailable to rats and if it is excreted in their urine.

For CC(O)C(C)C(N)C(=O)O (racemic) [4-OH-Ile, 4-hydroxyisoleucine], the glucose-induced insulin secretion (pancreatic beta cell) is listed as “stimulate glucose-induced insulin secretion”, the oral bioavailability ([1]; 4-OH-Ile in PROMILIN, oral) is listed as “bioavailable” and the “time to absorption from the gut into the circulation” value ([1]; both diastereomers, after oral gavage of PROMILIN) is listed as at most 15 min. For the same compound, the urinary excretion ([1]; both isomers) was “excreted in the urine” and the “appearance of 4-OH-Ile in the circulation” value ([1]; coadministration of glucose and PROMILIN) was “slowed the appearance”.
